Data published in patent US5260197A, “L-fucose dehydrogenase, a process for production thereof, quantitative assay for L-fucose using said enzyme and a kit for quantitative assay” (Noda Institute for Scientific Research, priority 1988, dated 1993).
Read-outs that look alike come from different tables or passages of the source. Each block holds one compound with its values, some of them ahead of it.

Assays:
[1] = target: T1, L-fucose dehydrogenase (L-FDH) (Pseudomonas sp, UniProt Q52472); format: biochemical; conditions: for Residual Activity (%): inhibitor or metal salt 2 mM in reaction solution, None = 100
T1 construct: L-FDH was accumulated in the cell portion; made in house; host or cells: Pseudomonas sp; No. 1143 (FERM BP-2056), the natural producing strain isolated from soil; enzyme purified from its cells, not recombinant
T1 sequence (Q52472 1-329): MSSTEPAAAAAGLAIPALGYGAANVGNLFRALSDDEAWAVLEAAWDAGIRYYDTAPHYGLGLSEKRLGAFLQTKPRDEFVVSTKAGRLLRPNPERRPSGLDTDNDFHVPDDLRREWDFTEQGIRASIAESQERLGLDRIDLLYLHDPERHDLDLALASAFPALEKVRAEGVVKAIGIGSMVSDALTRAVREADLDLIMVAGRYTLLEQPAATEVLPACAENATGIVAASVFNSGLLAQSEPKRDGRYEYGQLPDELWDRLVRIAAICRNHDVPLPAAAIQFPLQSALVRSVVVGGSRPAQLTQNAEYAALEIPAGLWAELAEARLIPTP
Method: (§1) To 2.5 ml of Tris-imidazole-sodium acetate buffer solution (solution containing 0.12 M each is adjusted to pH of 9.5 with 4 N NaOH) is added 0.2 ml of 15 mM NADP^+ solution After keeping at 37° C. for 5 minutes, 0.1 ml of an enzyme solution is added and 0.2 ml of 150 mM L-fucose solution is further added to the system to initiate the reaction. Immediately thereafter, the reaction mixture is transferred to a cell for measurement of absorbance (1 cm light path) kept at 37° C. and absorbance is measured at the wavelength of 340 nm for 2 minutes or, if necessary, over a longer time period. One unit is an amount of enzyme that produces 1 μmole of NADPH for one minute.

[2] = target: T1, L-fucose dehydrogenase (L-FDH); test: L-FDH substrate and coenzyme specificity (determination of activity, NADPH at 340 nm); format: biochemical, Pseudomonas sp. No. 1143; conditions: for specificity of the enzyme to substrate sugar (relative activity): L-fucose = 100%, NADP+ as coenzyme; for coenzyme requirement (relative activity): NADP+ = 100%, L-fucose as substrate
Method: As shown in the following reaction equation, the enzyme oxidizes L-fucose to L-fuconolactone in the presence of L-fucose and NADP+ and at the same time reduces NADP^+ to NADPH.
Furthermore, the enzyme requires NADP^+ (100%) as coenzyme but reacts very little with NAD^+ (1%).
as §1

[3] = target: T1, L-fucose dehydrogenase (L-FDH); test: Optimum pH and temperature, pH stability and thermal stability of L-FDH; format: biochemical, Pseudomonas sp. No. 1143
Method: By heat treatment at 30° C. for 60 minutes, the enzyme is stable at a pH value of 8.0 to 10.5 but is unstable at a pH value below 6.0.
as §1

[4] = Polyacrylamide gel isoelectrofocusing of L-FDH; format: physicochemical, Pseudomonas sp. No. 1143
[5] = metal salts and inhibitors, 2 mM

Compound: [Ca+2].[Cl-].[Cl-] [CaCl2]
inhibition and activation of enzyme activity [1, 5]: not observed

Compound: O=S(=O)([O-])[O-].[Cd+2] [CdSO4]
Residual Activity (%) [1]: 2%

Compound: O=S(=O)([O-])[O-].[Cu+2] [CuSO4]
inhibition and activation of enzyme activity [1, 5]: not observed

Compound: O=C[C@@H](O)[C@H](O)[C@H](O)CO [D-arabinose]
specificity of the enzyme to substrate sugar (relative activity) [2]: 1%

Compound: O=C(O)CN(CCN(CC(=O)O)CC(=O)O)CC(=O)O [EDTA]
inhibition and activation of enzyme activity [1]: not observed

Compound: [Cl][Hg][Cl] [HgCl2]
Residual Activity (%) [1]: 2%

Compound: NC(=O)CI [Iodoacetamide]
Residual Activity (%) [1]: 91%

Compound: C[C@H](O)[C@@H](O)[C@@H](O)[C@H](O)C=O [L-fucose]
specificity of the enzyme to substrate sugar (relative activity) [2]: 100%

Compound: O=C[C@@H](O)[C@H](O)[C@H](O)[C@@H](O)CO [L-galactose]
specificity of the enzyme to substrate sugar (relative activity) [2]: 96%

Compound: O=S(=O)([O-])[O-].[Mg+2] [MgSO4]
inhibition and activation of enzyme activity [1, 5]: not observed

Compound: NC(=O)c1ccc[n+]([C@@H]2O[C@H](COP(=O)([O-])OP(=O)(O)OC[C@H]3O[C@@H](n4cnc5c(N)ncnc54)[C@H](OP(=O)(O)O)[C@@H]3O)[C@@H](O)[C@H]2O)c1 [NADP^+, oxidized nicotinamide adenine dinucleotide phosphate]
coenzyme requirement (relative activity) [2]: 100%

Compound: NC(=O)c1ccc[n+]([C@@H]2O[C@H](COP(=O)([O-])OP(=O)(O)OC[C@H]3O[C@@H](n4cnc5c(N)ncnc54)[C@H](O)[C@@H]3O)[C@@H](O)[C@H]2O)c1 [NAD^+, nicotinamide adenine dinucleotide]
coenzyme requirement (relative activity) [2]: 1%

Compound: [N-]=[N+]=[N-].[Na+] [NaN3]
inhibition and activation of enzyme activity [1, 5]: not observed

Compound: O=S(=O)([O-])[O-].[Ni+2] [NiSO4]
inhibition and activation of enzyme activity [1, 5]: not observed

Compound: O=C(O)c1cc[c]([Hg][Cl])cc1 [PCMB]
Residual Activity (%) [1]: 18%

Compound: O=S(=O)([O-])[O-].[Zn+2] [ZnSO4]
Residual Activity (%) [1]: 81%

inhibition and activation of enzyme activity [1, 5]: not observed
Compound: c1cnc2c(c1)ccc1cccnc12 [o-phenanthroline]

Compound: c1ccc(-c2ccccn2)nc1 [α,α'-dipyridyl]
inhibition and activation of enzyme activity [1, 5]: not observed

Compound: L-fucose dehydrogenase [L-FDH]
pH at which the enzyme is unstable ([3]; heat treatment at 30° C. for 60 minutes): below 6.0 | temperature up to which the enzyme is stable ([3]; heat treatment for 10 minutes, FIG. 4): up to 40 °C | isoelectric point [4]: 5.2
